# Assay results taken from ChEMBL document CHEMBL3217615, “Novel 3,5-bis(arylidiene)-4-piperidone based monocarbonyl analogs of curcumin: anticancer activity evaluation and mode of action study” (2014).
# How the values were obtained:
# Assay type in all cases: functional
# [1] = Growth inhibition of human NCI-ADR-RES cells after 48 hrs by sulforhodamine B assay; details: for CC50: read-out: LC50 (the source's name)
# [2] = system: MDA-MB-231; assay: Growth inhibition of human MDA-MB-231 cells after 48 hrs by sulforhodamine B assay; details: MDA-MB-231, 48 h
# [3] = Growth inhibition of human HCT15 cells assessed as cell growth at 10^-6 M after 48 hrs by sulforhodamine B assay; details: HCT-15, 48 h, read-out: Activity
# [4] = Growth inhibition of human BT549 cells assessed as cell growth at 10^-8 M after 48 hrs by sulforhodamine B assay; details: BT-549, 48 h; for growth at 0.01 µM: read-out: Activity; for TGI: read-out: pTGI (converted)
# [5] = system: CAKI-1; assay: Growth inhibition of human CAKI-1 cells assessed as cell growth at 10^-4 M after 48 hrs by sulforhodamine B assay; details: CAKI-1, 48 h, read-out: Activity
# [6] = system: KM12; assay: Growth inhibition of human KM12 cells assessed as cell growth at 10^-8 M after 48 hrs by sulforhodamine B assay; details: KM12, 48 h; for growth at 0.01 µM: read-out: Activity; for TGI: read-out: pTGI (converted)
# [7] = system: RPMI-8226; assay: Growth inhibition of human RPMI8226 cells after 48 hrs by sulforhodamine B assay; details: RPMI-8226, 48 h
# [8] = system: SW-620; assay: Growth inhibition of human SW620 cells assessed as cell growth at 10^-6 M after 48 hrs by sulforhodamine B assay; details: SW-620, 48 h, read-out: Activity
# [9] = system: NCI-H226; assay: Growth inhibition of human NCI-H226 cells assessed as cell growth at 10^-8 M after 48 hrs by sulforhodamine B assay; details: NCI-H226, 48 h; for growth at 0.01 µM: read-out: Activity; for TGI: read-out: pTGI (converted)
# [10] = system: K562; assay: Growth inhibition of human K562 cells assessed as cell growth at 10^-6 M after 48 hrs by sulforhodamine B assay; details: K562, 48 h, read-out: Activity
# [11] = system: KM12; assay: Growth inhibition of human KM12 cells assessed as cell growth at 10^-4 M after 48 hrs by sulforhodamine B assay; details: KM12, 48 h, read-out: Activity
# [12] = Growth inhibition of human UACC62 cells assessed as cell growth at 10^-4 M after 48 hrs by sulforhodamine B assay; details: UACC-62, 48 h, read-out: Activity
# [13] = Growth inhibition of human MOLT4 cells after 48 hrs by sulforhodamine B assay; details: MOLT-4, 48 h; for CC50: read-out: LC50 (the source's name)
# [14] = system: MDA-MB-468; assay: Growth inhibition of human MDA-MB-468 cells assessed as cell growth at 10^-8 M after 48 hrs by sulforhodamine B assay; details: MDA-MB-468, 48 h; for growth at 0.01 µM: read-out: Activity; for CC50: read-out: pLC50 (the source's name) (converted); for TGI: read-out: pTGI (converted)
# [15] = system: NCI-H322M; assay: Growth inhibition of human NCI-H322M cells assessed as cell growth at 10^-6 M after 48 hrs by sulforhodamine B assay; details: read-out: Activity
# [16] = system: CAKI-1; assay: Growth inhibition of human CAKI-1 cells assessed as cell growth at 10^-6 M after 48 hrs by sulforhodamine B assay; details: CAKI-1, 48 h, read-out: Activity
# [17] = system: CCRF-CEM; assay: Growth inhibition of human CCRF-CEM cells after 48 hrs by sulforhodamine B assay; details: for CC50: read-out: LC50 (the source's name)
# [18] = system: HT-29; assay: Growth inhibition of human HT-29 cells assessed as cell growth at 10^-8 M after 48 hrs by sulforhodamine B assay; details: HT-29, 48 h; for growth at 0.01 µM: read-out: Activity; for TGI: read-out: pTGI (converted)
# [19] = system: SNB-19; assay: Growth inhibition of human SNB19 cells assessed as cell growth at 10^-8 M after 48 hrs by sulforhodamine B assay; details: SNB-19, 48 h; for growth at 0.01 µM: read-out: Activity; for TGI: read-out: pTGI (converted)
# [20] = system: HT-29; assay: Growth inhibition of human HT-29 cells assessed as cell growth at 10^-7 M after 48 hrs by sulforhodamine B assay; details: HT-29, 48 h, read-out: Activity
# [21] = system: SK-MEL-28; assay: Growth inhibition of human SK-MEL-28 cells assessed as cell growth at 10^-8 M after 48 hrs by sulforhodamine B assay; details: SK-MEL-28, 48 h; for growth at 0.01 µM: read-out: Activity; for CC50: read-out: pLC50 (the source's name) (converted); for TGI: read-out: pTGI (converted)
# [22] = Growth inhibition of human RXF393 cells assessed as cell growth at 10^-7 M after 48 hrs by sulforhodamine B assay; details: RXF 393, 48 h, read-out: Activity
# [23] = system: Malme-3M; assay: Growth inhibition of human MALME-3M cells assessed as cell growth at 10^-8 M after 48 hrs by sulforhodamine B assay; details: for growth at 0.01 µM: read-out: Activity
# [24] = system: DU-145; assay: Growth inhibition of human DU145 cells assessed as cell growth at 10^-6 M after 48 hrs by sulforhodamine B assay; details: DU-145, 48 h, read-out: Activity
# [25] = system: SF-268; assay: Growth inhibition of human SF268 cells assessed as cell growth at 10^-8 M after 48 hrs by sulforhodamine B assay; details: SF-268, 48 h; for growth at 0.01 µM: read-out: Activity; for TGI: read-out: pTGI (converted)
# [26] = Growth inhibition of human MOLT4 cells assessed as cell growth at 10^-6 M after 48 hrs by sulforhodamine B assay; details: MOLT-4, 48 h, read-out: Activity
# [27] = Growth inhibition of human UO31 cells assessed as cell growth at 10^-8 M after 48 hrs by sulforhodamine B assay; details: UO-31, 48 h; for growth at 0.01 µM: read-out: Activity; for TGI: read-out: pTGI (converted)
# [28] = system: COLO 205; assay: Induction of apoptosis in human COLO205 cells assessed as caspase 3/7 activation at 10 uM by FLICA
# [29] = system: K562; assay: Growth inhibition of human K562 cells assessed as cell growth at 10^-7 M after 48 hrs by sulforhodamine B assay; details: K562, 48 h, read-out: Activity
# [30] = system: SK-MEL-2; assay: Growth inhibition of human SK-MEL-2 cells assessed as cell growth at 10^-6 M after 48 hrs by sulforhodamine B assay; details: SK-MEL-2, 48 h, read-out: Activity
# [31] = system: T47D; assay: Growth inhibition of human T47D cells assessed as cell growth at 10^-6 M after 48 hrs by sulforhodamine B assay; details: read-out: Activity
# [32] = system: HOP-62; assay: Growth inhibition of human HOP62 cells assessed as cell growth at 10^-7 M after 48 hrs by sulforhodamine B assay; details: HOP-62, 48 h, read-out: Activity
smiles,measurement,setting,value
O=C1/C(=C/c2ccc(Cl)cc2Cl)CN(S(=O)(=O)c2ccccc2)C/C1=C\c1ccc(Cl)cc1Cl,GI50,[1],1370 nM
same,TGI,[1],> 100000 nM
same,CC50,[1],> 100000 nM
same,GI50,[2],466 nM
same,TGI,[2],2160 nM
same,growth at 1 µM,[3],-12%
same,GI50,[4],977 nM
same,LC50,[4],> 100000 nM
same,growth at 0.01 µM,[4],106%
same,TGI,[4],4170 nM
same,growth at 100 µM,[5],-11%
same,GI50,[6],257 nM
same,LC50,[6],25700 nM
same,growth at 0.01 µM,[6],100%
same,TGI,[6],603 nM
same,GI50,[7],225 nM
same,LC50,[7],> 100000 nM
same,TGI,[7],605 nM
same,growth at 1 µM,[8],4%
same,GI50,[9],1050 nM
same,LC50,[9],7940 nM
same,growth at 0.01 µM,[9],92%
same,TGI,[9],2880 nM
same,growth at 1 µM,[10],8%
same,growth at 100 µM,[11],-56%
same,growth at 100 µM,[12],-71%
same,GI50,[13],594 nM
same,TGI,[13],9050 nM
same,CC50,[13],> 100000 nM
same,GI50,[14],1120 nM
same,growth at 0.01 µM,[14],90%
same,CC50,[14],> 100000 nM
same,TGI,[14],3890 nM
same,growth at 1 µM,[15],35%
same,growth at 1 µM,[16],77%
same,GI50,[17],286 nM
same,TGI,[17],994 nM
same,CC50,[17],> 100000 nM
same,GI50,[18],295 nM
same,LC50,[18],> 100000 nM
same,growth at 0.01 µM,[18],102%
same,TGI,[18],851 nM
same,GI50,[19],316 nM
same,LC50,[19],> 100000 nM
same,growth at 0.01 µM,[19],92%
same,TGI,[19],2880 nM
same,growth at 0.1 µM,[20],101%
same,GI50,[21],4470 nM
same,growth at 0.01 µM,[21],97%
same,CC50,[21],> 100000 nM
same,TGI,[21],> 100000 nM
same,growth at 0.1 µM,[22],84%
same,GI50,[23],3240 nM
same,LC50,[23],> 100000 nM
same,growth at 0.01 µM,[23],118%
same,growth at 1 µM,[24],18%
same,GI50,[25],447 nM
same,LC50,[25],> 100000 nM
same,growth at 0.01 µM,[25],99%
same,TGI,[25],> 100000 nM
same,growth at 1 µM,[26],34%
same,GI50,[27],234 nM
same,LC50,[27],4790 nM
same,growth at 0.01 µM,[27],88%
same,TGI,[27],646 nM
same,Activity,[28],35.5%
same,growth at 0.1 µM,[29],99%
same,growth at 1 µM,[30],98%
same,growth at 1 µM,[31],55%
same,growth at 0.1 µM,[32],113%
Cc1ccc(S(=O)(=O)N2C/C(=C\c3cc(F)cc(F)c3)C(=O)/C(=C/c3cc(F)cc(F)c3)C2)cc1,GI50,[1],439 nM
same,TGI,[1],10100 nM
same,CC50,[1],76700 nM
same,GI50,[2],270 nM
same,TGI,[2],784 nM
same,CC50,[2]; read-out: LC50 (the source's name),8480 nM
same,growth at 1 µM,[3],5%
same,GI50,[4],339 nM
same,LC50,[4],3550 nM
same,growth at 0.01 µM,[4],102%
same,TGI,[4],933 nM
same,growth at 100 µM,[5],-57%
same,GI50,[6],324 nM
same,LC50,[6],4070 nM
same,growth at 0.01 µM,[6],106%
same,TGI,[6],1000 nM
same,GI50,[7],37.2 nM
same,LC50,[7],93800 nM
same,TGI,[7],331 nM
same,growth at 1 µM,[8],-45%
same,GI50,[9],8710 nM
same,LC50,[9],> 100000 nM
same,growth at 0.01 µM,[9],97%
same,TGI,[9],39800 nM
same,growth at 1 µM,[10],3%
same,growth at 100 µM,[11],-88%
same,growth at 100 µM,[12],-98%
same,GI50,[13],299 nM
same,TGI,[13],2110 nM
same,CC50,[13],> 100000 nM
same,GI50,[14],347 nM
same,growth at 0.01 µM,[14],90%
same,CC50,[14],5750 nM
same,TGI,[14],1700 nM
same,growth at 1 µM,[15],101%
same,growth at 1 µM,[16],16%
same,GI50,[17],74.8 nM
same,TGI,[17],951 nM
same,CC50,[17],> 100000 nM
same,GI50,[18],229 nM
same,LC50,[18],3160 nM
same,growth at 0.01 µM,[18],105%
same,TGI,[18],631 nM
same,GI50,[19],219 nM
same,LC50,[19],2820 nM
same,growth at 0.01 µM,[19],87%
same,TGI,[19],759 nM
same,growth at 0.1 µM,[20],91%
same,GI50,[21],468 nM
same,growth at 0.01 µM,[21],100%
same,CC50,[21],4790 nM
same,TGI,[21],1780 nM
same,growth at 0.1 µM,[22],88%
same,GI50,[23],275 nM
same,LC50,[23],3800 nM
same,growth at 0.01 µM,[23],97%
same,TGI,[23]; read-out: pTGI (converted),741 nM
same,growth at 1 µM,[24],62%
same,GI50,[25],427 nM
same,LC50,[25],14500 nM
same,growth at 0.01 µM,[25],98%
same,TGI,[25],2140 nM
same,growth at 1 µM,[26],8%
same,GI50,[27],1100 nM
same,LC50,[27],5130 nM
same,growth at 0.01 µM,[27],91%
same,TGI,[27],2340 nM
same,Activity,[28],41.5%
same,growth at 0.1 µM,[29],44%
same,growth at 1 µM,[30],89%
same,growth at 1 µM,[31],74%
same,growth at 0.1 µM,[32],110%
